Reference: the supplement of paper PMC10307832

compound: C1CSC2=C(C(=O)N1)SC3=C2C=C(C=C3)O [kb NB 142-70]; assay: relative viability (nuclei count vs DMSO), 5 days (fraction); higher = more cells survive; conditions: 0.1 µM
Summary of the method: (§1)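 Viability is treated-well nuclei as a fraction of vehicle-well nuclei, reported as the median across plates. Before counting, lung cancer cell lines were kept overnight at 37 °C in 1536-well plates, pinned with five √10-spaced library-drug doses on vehicle-anchored plates, and left 5 days without medium change, then fixed, permeabilised and Hoechst-stained in one step, imaged at 4× and counted by MetaXpress. A plate passed only if control CV was below 25% and at least one doubling occurred.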

In order of rising relative viability:
1. IA-LM  0.818
2. COR-L 105  0.86
3. LU99A  0.94
4. NCI-H1666  0.951
5. LOU-NH91  0.959
6. A549  0.96
7. COR-L23  0.961
8. BEN  0.961
9. NCI-H2170  0.965
10. NCI-H661  0.969
11. NCI-H1299  0.977
12. NCI-H2405  0.985
13. CAL-12T  0.985
14. HARA  0.986
15. EPLC-272H  0.988
16. SK-LU-1  0.994
17. LXF-289  0.999
18. LK-2  1.01
19. SK-MES-1  1.01
20. H3255  1.01
21. HCC-44  1.01
22. NCI-H460  1.01
23. NCI-H1395  1.01
24. 201T  1.01
25. NCI-H647  1.01
26. NCI-H596  1.02
27. NCI-H1651  1.02
28. HOP-62  1.03
29. NCI-H322M  1.03
30. LCLC-97TM1  1.03
31. NCI-H2087  1.04
32. A-427  1.04
33. NCI-H1734  1.04
34. NCI-H1915  1.04
35. NCI-H2347  1.05
36. NCI-H23  1.05
37. NCI-H2009  1.06
38. HCC-827  1.07
39. HCC-78  1.08

same assay, conditions: 1 µM

In order of rising relative viability:
1. NCI-H23  0.689
2. NCI-H1734  0.774
3. LU99A  0.816
4. LK-2  0.855
5. COR-L 105  0.88
6. BEN  0.894
7. EPLC-272H  0.905
8. NCI-H661  0.934
9. H3255  0.954
10. LCLC-97TM1  0.956
11. A549  0.957
12. NCI-H1395  0.963
13. 201T  0.966
14. HARA  0.971
15. LOU-NH91  0.974
16. NCI-H1651  0.975
17. NCI-H1915  0.978
18. SK-LU-1  0.982
19. NCI-H460  0.99
20. NCI-H2405  0.995
21. HCC-44  0.997
22. HCC-78  0.998
23. NCI-H322M  1
24. A-427  1
25. NCI-H1666  1.01
26. NCI-H2170  1.02
27. NCI-H2347  1.02
28. HCC-827  1.03
29. LXF-289  1.03
30. NCI-H647  1.03
31. HOP-62  1.04
32. IA-LM  1.05
33. NCI-H1299  1.06
34. NCI-H2009  1.07
35. CAL-12T  1.07
36. NCI-H596  1.1
37. SK-MES-1  1.13
38. COR-L23  1.14
39. NCI-H2087  1.29

same assay, conditions: 3.162 µM

In order of falling relative viability:
1. NCI-H1299  1.1
2. HCC-44  1.08
3. IA-LM  1.06
4. H3255  1.02
5. COR-L 105  1.02
6. HARA  1.02
7. 201T  1.02
8. NCI-H647  0.99
9. NCI-H596  0.981
10. NCI-H460  0.979
11. LXF-289  0.975
12. HCC-827  0.971
13. A-427  0.969
14. NCI-H2087  0.951
15. NCI-H2347  0.949
16. NCI-H1666  0.922
17. NCI-H322M  0.92
18. NCI-H661  0.919
19. HOP-62  0.911
20. CAL-12T  0.904
21. HCC-78  0.877
22. NCI-H2170  0.825
23. NCI-H1651  0.821
24. NCI-H2009  0.788
25. NCI-H1915  0.742
26. BEN  0.738
27. SK-MES-1  0.734
28. NCI-H2405  0.7
29. A549  0.689
30. LK-2  0.685
31. SK-LU-1  0.664
32. LU99A  0.637
33. LOU-NH91  0.63
34. NCI-H1395  0.601
35. NCI-H1734  0.517
36. COR-L23  0.507
37. LCLC-97TM1  0.489
38. EPLC-272H  0.447
39. NCI-H23  0.336

compound: NCC(=O)Nc1ccc(-n2nc(C(F)(F)F)cc2-c2ccc3c(ccc4ccccc43)c2)cc1; assay: as above; conditions: 0.02 µM
Summary of the method: as §1

In order of rising relative viability:
1. A-427  0.766
2. COR-L 105  0.843
3. NCI-H1915  0.86
4. NCI-H23  0.863
5. LU99A  0.864
6. 201T  0.892
7. HARA  0.901
8. EPLC-272H  0.904
9. LK-2  0.923
10. NCI-H1734  0.931
11. NCI-H647  0.934
12. NCI-H1395  0.941
13. SK-LU-1  0.949
14. H3255  0.951
15. NCI-H2009  0.952
16. CAL-12T  0.957
17. LOU-NH91  0.963
18. NCI-H460  0.974
19. NCI-H2087  0.978
20. NCI-H2170  0.985
21. BEN  0.99
22. NCI-H2347  0.99
23. HCC-78  0.993
24. NCI-H1299  0.993
25. LCLC-97TM1  0.995
26. HCC-44  0.996
27. NCI-H2405  1
28. NCI-H1651  1
29. IA-LM  1.01
30. NCI-H322M  1.01
31. LXF-289  1.01
32. HOP-62  1.03
33. A549  1.03
34. NCI-H661  1.03
35. HCC-827  1.03
36. SK-MES-1  1.04
37. NCI-H1666  1.05
38. COR-L23  1.08
39. NCI-H596  1.12

same assay, conditions: 0.06325 µM

In order of falling relative viability:
1. EPLC-272H  1.2
2. NCI-H596  1.11
3. LCLC-97TM1  1.1
4. SK-LU-1  1.1
5. NCI-H2087  1.09
6. HARA  1.09
7. A-427  1.06
8. NCI-H1734  1.06
9. NCI-H2347  1.06
10. LXF-289  1.06
11. LK-2  1.05
12. HCC-827  1.05
13. NCI-H23  1.04
14. IA-LM  1.03
15. HCC-44  1.03
16. NCI-H647  1.03
17. COR-L23  1.02
18. COR-L 105  1.02
19. NCI-H2405  1.02
20. NCI-H2009  1.02
21. NCI-H1915  1.02
22. SK-MES-1  1.01
23. H3255  1.01
24. 201T  1.01
25. CAL-12T  1.01
26. LOU-NH91  1
27. HOP-62  0.997
28. NCI-H460  0.995
29. A549  0.987
30. NCI-H1666  0.986
31. NCI-H1395  0.983
32. NCI-H1299  0.982
33. NCI-H2170  0.974
34. BEN  0.972
35. NCI-H661  0.96
36. NCI-H322M  0.958
37. NCI-H1651  0.947
38. HCC-78  0.93
39. LU99A  0.915

same assay, conditions: 0.2 µM

In order of rising relative viability:
1. NCI-H1395  0.755
2. EPLC-272H  0.874
3. COR-L 105  0.916
4. NCI-H322M  0.92
5. LK-2  0.935
6. HOP-62  0.943
7. LOU-NH91  0.951
8. HCC-44  0.952
9. NCI-H1734  0.955
10. NCI-H2170  0.967
11. NCI-H661  0.973
12. H3255  0.974
13. HARA  0.975
14. NCI-H1915  0.978
15. NCI-H1651  0.978
16. 201T  0.98
17. LU99A  0.987
18. HCC-827  0.987
19. LXF-289  0.988
20. NCI-H23  0.988
21. BEN  0.994
22. A-427  0.998
23. LCLC-97TM1  1
24. NCI-H460  1
25. NCI-H1666  1.01
26. A549  1.01
27. IA-LM  1.02
28. NCI-H1299  1.02
29. HCC-78  1.04
30. CAL-12T  1.05
31. NCI-H596  1.06
32. SK-MES-1  1.06
33. COR-L23  1.07
34. NCI-H2009  1.07
35. NCI-H647  1.07
36. NCI-H2405  1.09
37. NCI-H2087  1.1
38. NCI-H2347  1.16
39. SK-LU-1  1.2

same assay, conditions: 0.6325 µM

In order of falling relative viability:
1. HARA  1.11
2. NCI-H2347  1.11
3. NCI-H2087  1.08
4. IA-LM  1.08
5. LK-2  1.06
6. HCC-827  1.02
7. SK-MES-1  1.01
8. LCLC-97TM1  1.01
9. SK-LU-1  1.01
10. EPLC-272H  1.01
11. COR-L23  1
12. NCI-H2009  1
13. A-427  0.994
14. NCI-H596  0.992
15. NCI-H1299  0.992
16. LXF-289  0.991
17. 201T  0.989
18. NCI-H460  0.987
19. HCC-44  0.984
20. NCI-H322M  0.98
21. NCI-H1734  0.966
22. LOU-NH91  0.965
23. NCI-H661  0.963
24. NCI-H1915  0.963
25. NCI-H1666  0.961
26. NCI-H2405  0.961
27. NCI-H1651  0.956
28. NCI-H2170  0.949
29. A549  0.949
30. CAL-12T  0.949
31. HCC-78  0.944
32. NCI-H647  0.943
33. HOP-62  0.928
34. LU99A  0.908
35. NCI-H23  0.904
36. BEN  0.894
37. COR-L 105  0.891
38. H3255  0.866
39. NCI-H1395  0.858

same assay, conditions: 2 µM

In order of falling relative viability:
1. HCC-827  1.1
2. CAL-12T  1.08
3. HARA  1.07
4. NCI-H2347  1.07
5. SK-LU-1  1.07
6. LOU-NH91  1.06
7. NCI-H2405  1.06
8. H3255  1.05
9. HOP-62  1.05
10. NCI-H2009  1.05
11. SK-MES-1  1.03
12. A-427  1.03
13. LXF-289  1.03
14. NCI-H2087  1.02
15. NCI-H661  1.02
16. 201T  1.01
17. HCC-44  1
18. NCI-H1395  1
19. NCI-H1299  1
20. NCI-H1651  0.998
21. NCI-H2170  0.997
22. IA-LM  0.996
23. NCI-H322M  0.996
24. NCI-H1915  0.989
25. NCI-H1666  0.987
26. NCI-H460  0.976
27. BEN  0.975
28. HCC-78  0.968
29. LU99A  0.967
30. LCLC-97TM1  0.958
31. NCI-H596  0.945
32. COR-L 105  0.94
33. NCI-H1734  0.928
34. A549  0.915
35. EPLC-272H  0.911
36. LK-2  0.909
37. NCI-H647  0.897
38. COR-L23  0.882
39. NCI-H23  0.846
